Columns and labels:
HIF-1 [1] = assay: Cell-based HIF-1 luciferase reporter assay (pTK-HRE3-luc), HIF-1 activation by hypoxia; details: Homo sapiens; T47D cells; 1% O2/5% CO2/94% N2, 16 hr; read-out: IC50, inhibition of hypoxia-induced HIF-1 activity
Description: To identify functional antagonists of HIF-1, the present inventors have established a cell-based reporter assay for inhibitors of HIF-1 in hypoxia responsive human breast carcinoma T47D cells. Breast cancer was chosen as the target for this drug discovery effort, due to the high incidence of this disease and the urgent need to identify chemotherapeutic agents that target tumor hypoxia, the comprehensive knowledge base of breast cancer etiology, and the availability of well-studied human breast carcinoma cell lines as in vitro models. In addition, HIF-1α overexpression is associated with advanced stages of breast cancer and poor prognosis. The activity of HIF-1 is monitored using a luciferase reporter under the control of HRE from the erythropoietin gene (pTK-HRE3-luc). Natural product-rich extracts (dissolved in DMSO) are evaluated for activities that inhibit HIF-1 activation by hypoxia (about: 1% O2/5% CO2/94% N2).
For these studies, exponentially grown T47D cells are transiently transfected with the pTK-HRE3-luc and pGL3-control (Promega) reporters and plated into 96-well plates. […]
About 24 hours after plating, a compound of Formula (I) is added to the transfected T47D cells. […] At the end of incubation, the cells are harvested and both luciferase activities determined using a Luciferase Assay System (Promega). […]

HIF-1 [2] = assay: Cell-based HIF-1 luciferase reporter assay, HIF-1 activation by iron chelator 1,10-phenanthroline (chemical hypoxia); design: species or system human; details: T47D cells; 1,10-phenanthroline at 10 μM; compound about 3 μM (FIG. 3)
Experimental: For these studies, exponentially grown T47D cells are transiently transfected with the pTK-HRE3-luc and pGL3-control (Promega) reporters and plated into 96-well plates. The pGL3-control reporter contains a modified reporter (cloned from Photinus pyralis) under the control of a SV40 early promoter and provides low-level, constitutive expression in mammalian cells as internal control.
About 24 hours after plating, a compound of Formula (I) is added to the transfected T47D cells. Following incubation at about 37° C. for about 30 minutes, the cells are exposed to hypoxic conditions (1% O2/5% CO2/94% N2) or chemical hypoxia (iron chelator 1,10-phenanthroline at 10 μM) for 16 hr. At the end of incubation, the cells are harvested and both luciferase activities determined using a Luciferase Assay System (Promega). Luciferase activity from the pTK-HRE3-luc reporter was compared to luciferase activity from the pGL3-control reporter.

T47D cells [3] = assay: T47D cell survival under hypoxic conditions (FIG. 8); type: cell-based, human
T47D cells [4] = assay: Cell viability by Neutral Red assay under hypoxic conditions; type: cell-based, human; details: similar hypoxic conditions
Description: The data presented in FIGS. 2 and 3 are averages from one representative experiment performed in quadruplicate and the bars represent standard errors. Accordingly, a compound of Formula (I) is shown to have a selective effect on physiological hypoxia-induced HIF-1 activation, relative to “chemical hypoxia”-induced HIF-1. To rule out false positives associated with cytotoxicity, the effects of Formula (I) on cell viability are examined.

[5] = test system: mitochondrial electron transport pathway; assay: Mitochondrial oxygen consumption (FIG. 9); type: biochemical; details: in the presence of glutamate/malate, ADP; increasing amounts of compound
Experimental: FIG. 9 is a graph showing that a compound of formula 1 inhibits the mitochondrial electron transport pathway. Mitochondrial oxygen consumption was measured, in this example, in the presence of glutamate/malate, ADP and increasing amounts of a compound of formula 1.

secreted VEGF protein [6] = assay: Secreted VEGF protein ELISA after 1,10-phenanthroline (chemical hypoxia); type: cell-based, human; details: T47D cells pretreated with 1,10-phenanthroline (chemical hypoxia)
Experimental: (§1) Since secreted VEGF protein is the bioactive form, compounds that can reduce the level of secreted VEGF protein represent potential tumor angiogenesis inhibitors. Thus, compounds that can inhibit both hypoxic activation of HIF-1 and hypoxic induction of secreted VEGF protein represent “true” leads that target tumor hypoxia. The effects of compounds of the present invention on hypoxic induction of secreted VEGF protein are examined in T47D cells. Exponentially grown T47D cells were plated at the density of about 30,000 cells/well into 96-well plates. Compound treatment and hypoxic exposure were the same as described. Following incubation, secreted VEGF protein concentrations in the conditioned media are determined by ELISA (R & D Systems) and the data normalized by the number of viable cells. […] Therefore, in addition to its effect on HIF-1, compounds of the present invention have a potential therapeutic application as an agent to inhibit tumor angiogenesis.

secreted VEGF protein [7] = assay: Secreted VEGF protein ELISA after hypoxic treatment; type: cell-based, human; details: concentrations of 1 μM and above; hypoxic treatment of T47D cells
Experimental: as §1

HIF-1α protein = assay: Western blot of nuclear HIF-1α protein induced by hypoxia; type: cell-based, human; details: T47D cells; hypoxia about 4 hours; nuclear extract Western blot
Experimental: Since the availability of the oxygen-regulated HIF-1α protein determines the biological activity of HIF-1 and hypoxia induces HIF-1α protein, the effect of compounds of the present invention on the induction of HIF-1α protein are examined in T47D cells. Briefly, exponentially grown T47D cells are exposed to a compound of Formula (I) for about 30 minutes. The incubation then continues for about 4 hours under hypoxic conditions. Nuclear extracts are prepared from control and treated cells. The HIF-1αand HIF-1β proteins in the nuclear extract samples are detected by Western blot, using HIF-1αand HIF-1β specific antibodies (Novus Biologicals). […] Significant inhibition of HIF-1α protein is observed at about 100 nM and complete inhibition is observed at about 1 μM. It is reasonable to conclude that the selectivity of the compounds of the present invention towards hypoxia-activated HIF-1 is caused by selective blockade of the hypoxic induction of HIF-1α protein.

CC1=CC(O)C(C(C)CCC2C(C)C3(C)CCC2(C)O3)CC1 (stereo not drawn) [Formula (I), LAURENDITERPENOL]
IC50 (HIF-1 [1]): ~400 nM | effect on iron chelator-induced HIF-1 (HIF-1 [2]): no statistically significant effect | effect on T47D cell survival (T47D cells [3]): significantly reduced | effect on T47D cell viability (T47D cells [4]): marginal decrease | effect on mitochondrial electron transport pathway (oxygen consumption) [5]: inhibits | effect on secreted VEGF protein levels (secreted VEGF protein [6]): do not affect | decrease in level of secreted VEGF protein (secreted VEGF protein [7]): about 60% | concentration at which complete inhibition of HIF-1α protein is observed (HIF-1α protein): about 1 μM | concentration at which significant inhibition of HIF-1α protein is observed (HIF-1α protein): about 100 nM

From US7375132B2, “Compounds and methods for inhibiting cellular responses to hypoxia” (University of Mississippi, priority 2004, dated 2008)
